Results on 28 compounds are retold here after patent US8598200B2, “KAT II inhibitors” (Pfizer Inc., priority 2010, dated 2013).

As usually defined, the IC50 is the concentration that inhibits the measured activity by half.

Sequence of human KAT II (hKAT II) enzyme (Q8N5Z0 30-425): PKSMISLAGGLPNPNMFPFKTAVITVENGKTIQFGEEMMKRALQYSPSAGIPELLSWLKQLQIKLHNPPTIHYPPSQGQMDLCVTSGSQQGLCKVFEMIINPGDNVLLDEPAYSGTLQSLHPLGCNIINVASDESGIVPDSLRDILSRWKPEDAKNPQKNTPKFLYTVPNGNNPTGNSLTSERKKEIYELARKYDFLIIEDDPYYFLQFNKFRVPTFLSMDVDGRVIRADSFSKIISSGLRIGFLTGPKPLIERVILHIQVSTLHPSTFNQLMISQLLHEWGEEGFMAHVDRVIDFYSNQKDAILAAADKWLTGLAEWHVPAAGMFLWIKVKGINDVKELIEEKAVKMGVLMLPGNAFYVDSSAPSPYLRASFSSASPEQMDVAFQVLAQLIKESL

This assay has as its target human KAT II (hKAT II) enzyme (Homo sapiens (Human), UniProt Q8N5Z0). The assay is described as follows: KAT II Inhibition Spectra Assay. The settings on record: decrease in OD370, L-kynurenine substrate, 37° C. for 15-20 h; values marked ^1 are the average of 2 IC50 determinations; read-out: KATII IC50 (nM; single determination unless otherwise indicated). The format is biochemical. As to the method: Formation of kynurenic acid (KYNA) is indirectly assessed by a decrease in light absorbance at 370 nm (OD370) as the L-kynurenine (KYN) substrate is converted by the human KAT II (hKAT II) enzyme into KYNA. An inhibitor would therefore inhibit the decrease in OD370.
The protocol was performed by placing the following reagents into a Costar 384 well black plate (30 μL total assay volume/well): • 10 μL of 3× concentrated compound; • 10 μL of 3× concentrated substrate mix (BGG (Sigma G-5009); 3 mM L-Kynurenine in 150 mM Tris Acetate (Sigma K3750); 3 mM α-ketoglutaric acid in 150 mM Tris Acetate (Sigma K2010); and 210 μM pyridoxal 5-phosphate (PLP) in 150 mM Tris Acetate (Sigma 9255)); and • 10 μL of 3× concentrated enzyme (15 nM enzyme in 150 mM Tris Acetate with 0.3% bovine serum).
Plates were sealed and incubated at 37° C. for 15-20 h before reading OD370 on a SpectraMax Plus plate reader. IC50s were generated by comparing the efficacy of compounds across a concentration range to inhibit a reduction in the OD370 value relative to assay wells with DMSO added in place of concentrated compound. Biological data for the Examples may be found in Table 2.
Consider `N[C@H]1Cc2cn(Cc3ccccc3)nc2N(O)C1=O` [Example 1, (5S)-5-Amino-2-benzyl-7-hydroxy-2,4,5,7-tetrahydro-6H-pyrazolo[3,4-b]pyridin-6-one], for which the concentration for half-maximal inhibition (IC50) was found to be 59.4 nM.
Next, `Cn1nc(Cc2ccccc2)c2c1N(O)C(=O)[C@@H](N)C2` [Example 2, (5S)-5-Amino-3-benzyl-7-hydroxy-1-methyl-1,4,5,7-tetrahydro-6H-pyrazolo[3,4-b]pyridin-6-one]: 63.7 nM; `Cn1nc2c(c1Cc1ccccc1)C[C@H](N)C(=O)N2O` [Example 3, (5S)-5-Amino-3-benzyl-7-hydroxy-2-methyl-2,4,5,7-tetrahydro-6H-pyrazolo[3,4-b]pyridin-6-one]: 11.5 nM; `N[C@H]1Cc2c(cnn2Cc2ccccc2)N(O)C1=O` [Example 4, (6S)-6-Amino-1-benzyl-4-hydroxy-1,4,6,7-tetrahydro-5H-pyrazolo[4,3-b]pyridin-5-one]: 22.5 nM.
In the case of `N[C@H]1Cc2c(c(C(F)(F)F)nn2Cc2ccccc2)N(O)C1=O` [Example 5, (6S)-6-Amino-1-benzyl-4-hydroxy-3-(trifluoromethyl)-1,4,6,7-tetrahydro-5H-pyrazolo[4,3-b]pyridin-5-one], the half-maximal inhibitory concentration (IC50) turned out to be 42.7 nM.
In the case of `N[C@H]1Cc2cn(Cc3ccc(OC(F)(F)F)cc3)nc2N(O)C1=O` [Example 6, (5S)-5-Amino-7-hydroxy-2-[4-(trifluoromethoxy)benzyl]-2,4,5,7-tetrahydro-6H-pyrazolo[3,4-b]pyridin-6-one] it was 43.6 nM; in that of `N[C@H]1Cc2cn(-c3cccc(C(F)(F)F)c3)nc2N(O)C1=O` [Example 7, (5S)-5-Amino-7-hydroxy-2-[3-(trifluoromethyl)phenyl]-2,4,5,7-tetrahydro-6H-pyrazolo[3,4-b]pyridin-6-one], 74.7 nM; in that of `N[C@H]1Cc2cn(Cc3cccc4ccccc34)nc2N(O)C1=O` [Example 8, (5S)-5-amino-7-hydroxy-2-(1-naphthylmethyl)-2,4,5,7-tetrahydro-6H-pyrazolo[3,4-b]pyridin-6-one], 36 nM.
With `N[C@H]1Cc2cn(Cc3ccc4ccccc4c3)nc2N(O)C1=O` [Example 9, (5S)-5-amino-7-hydroxy-2-(2-naphthylmethyl)-2,4,5,7-tetrahydro-6H-pyrazolo[3,4-b]pyridin-6-one], the concentration for half-maximal inhibition (IC50) was 117 nM.
Take `COc1ccccc1Cn1cc2c(n1)N(O)C(=O)[C@@H](N)C2` [Example 10, (5S)-5-amino-7-hydroxy-2-(2-methoxybenzyl)-2,4,5,7-tetrahydro-6H-pyrazolo[3,4-b]pyridin-6-one]: the half-inhibitory concentration (IC50) came to 50.2 nM.
With `COc1cccc(Cn2cc3c(n2)N(O)C(=O)[C@@H](N)C3)c1` [Example 11, (5S)-5-amino-7-hydroxy-2-(3-methoxybenzyl)-2,4,5,7-tetrahydro-6H-pyrazolo[3,4-b]pyridin-6-one], the IC50 amounted to 8.93 nM.
As for `Cc1c2c(nn1Cc1ccccc1)N(O)C(=O)[C@@H](N)C2` [Example 12, (5S)-5-amino-2-benzyl-7-hydroxy-3-methyl-2,4,5,7-tetrahydro-6H-pyrazolo[3,4-b]pyridin-6-one], the 50% inhibitory concentration (IC50) was 81.6 nM.
Next, `N[C@H]1Cc2nn(Cc3ccccc3)cc2N(O)C1=O` [Example 13, (6S)-6-amino-2-benzyl-4-hydroxy-2,4,6,7-tetrahydro-5H-pyrazolo[4,3-b]pyridin-5-one]: 182 nM; `N[C@H]1Cc2cn(-c3ccccc3)nc2N(O)C1=O` [Example 14, (5S)-5-amino-7-hydroxy-2-phenyl-2,4,5,7-tetrahydro-6H-pyrazolo[3,4-b]pyridin-6-one]: 24.3 nM.
In the case of `COc1ccc(Cn2cc3c(n2)N(O)C(=O)[C@@H](N)C3)cc1` [Example 15, (5S)-5-amino-7-hydroxy-2-(4-methoxybenzyl)-2,4,5,7-tetrahydro-6H-pyrazolo[3,4-b]pyridin-6-one] it was 28.3 nM; in that of `Cc1c2c(nn1-c1ccccc1)C[C@H](N)C(=O)N2O` [Example 17, (6S)-6-amino-4-hydroxy-3-methyl-2-phenyl-2,4,6,7-tetrahydro-5H-pyrazolo[4,3-b]pyridin-5-one], 2010 nM.
Next, `Cn1ncc2c1N(O)C(=O)[C@@H](N)C2` [Example 18, (5S)-5-amino-7-hydroxy-1-methyl-1,4,5,7-tetrahydro-6H-pyrazolo[3,4-b]pyridin-6-one]: 329 nM; `N[C@H]1Cc2cn(C3CCC3)nc2N(O)C1=O` [Example 19, (5S)-5-amino-2-cyclobutyl-7-hydroxy-2,4,5,7-tetrahydro-6H-pyrazolo[3,4-b]pyridin-6-one]: 81.3 nM; `CC(C)n1cc2c(n1)N(O)C(=O)[C@@H](N)C2` [Example 20, (5S)-5-amino-7-hydroxy-2-isopropyl-2,4,5,7-tetrahydro-6H-pyrazolo[3,4-b]pyridin-6-one]: 153 nM.
Regarding `COc1ccc(Cc2nn(C)c3c2C[C@H](N)C(=O)N3O)cc1` [Example 21], the IC50 turned out to be 440 nM.
In the case of `COc1cccc(Cc2nn(C)c3c2C[C@H](N)C(=O)N3O)c1` [Example 22, (5S)-5-amino-7-hydroxy-3-(3-methoxybenzyl)-1-methyl-1,4,5,7-tetrahydro-6H-pyrazolo[3,4-b]pyridin-6-one] it was 65.6 nM; in that of `CCn1nc2c(c1Cc1ccccc1)C[C@H](N)C(=O)N2O` [Example 23, (5S)-5-amino-3-benzyl-2-ethyl-7-hydroxy-2.4,5,7-tetrahydro-6H-pyrazolo[3,4-b]pyridin-6-one], 24.3 nM; in that of `CC(C)n1nc2c(c1Cc1ccccc1)C[C@H](N)C(=O)N2O` [Example 24, (5S)-5-amino-3-benzyl-7-hydroxy-2-isopropyl-2,4,5,7-tetrahydro-6H-pyrazolo[3,4-b]pyridin-6-one], 63 nM.
On to `Cn1nc2c(c1Cc1cccc(C(F)(F)F)c1)C[C@H](N)C(=O)N2O` [Example 25, (5S)-5-amino-7-hydroxy-2-methyl-3-[3-(trifluoromethyl)benzyl]-2,4,5,7-tetrahydro-6H-pyrazolo[3,4-b]pyridin-6-one], for which the IC50 was found to be 42.2 nM.
Next, `Cn1nc2c(c1Cc1ccccc1C(F)(F)F)C[C@H](N)C(=O)N2O` [Example 26, (5S)-5-amino-7-hydroxy-2-methyl-3-[2-(trifluoromethyl)benzyl]-2.4,5,7-tetrahydro-6H-pyrazolo[3,4-b] pyridin-6-one]: 40.7 nM.
Next, `Cn1nc2c(c1Cc1ccc(C(F)(F)F)cc1)C[C@H](N)C(=O)N2O` [Example 27, (5S)-5-amino-7-hydroxy-2-methyl-3-[4-(trifluoromethyl)benzyl]-2,4,5,7-tetrahydro-6H-pyrazolo[3,4-6]pyridin-6-one]: 37 nM; `N[C@H]1Cc2cn(-c3ccccc3C(F)(F)F)nc2N(O)C1=O` [Example 28, (5S)-5-amino-7-hydroxy-2-[2-(trifluoromethyl)phenyl]-2,4,5,7-tetrahydro-6H-pyrazolo[3,4-b]pyridin-6-one]: 38.8 nM.
On to `N[C@H]1Cc2cn(-c3ccc(C(F)(F)F)cc3)nc2N(O)C1=O` [Example 29, (5S)-5-amino-7-hydroxy-2-[4-(trifluoromethyl)phenyl]-2,4,5,7-tetrahydro-6H-pyrazolo[3,4-b]pyridin-6-one], for which the IC50 stood at 31.6 nM.
